From patent US20070128217A1 (priority 2003, published 2007)

Assays:
[1] = test system: rabbit serum obtained by immunizing a rabbit with the SARS-CoV strain Frankfurt 1; type: binding; parameters: Binding of a rabbit serum to linear peptides / Binding of a rabbit serum to looped peptides / Rabbit serum linear peptides / Rabbit serum looped peptides / Binding of a rabbit serum to linear peptides of protein N of SARS-CoV Urbani (Rabbit serum linear peptides) / Binding of a rabbit serum to looped/cyclic peptides of protein N of SARS-CoV Urbani (Rabbit serum looped peptides): unit not given here
[2] = test system: control sera (pooled serum of ten healthy LUMC hospital workers; commercial negative donor pooled serum from the Dutch bloodbank); type: binding, human; parameters: Binding of Control serum LUMC to linear peptides / Binding of Control serum Blood-bank to linear peptides / Binding of Control serum LUMC to looped peptides / Binding of Control Serum Blood-Bank to Looped peptides / Binding of Control serum LUMC to linear peptides of the protein M of SARS-CoV Urbani / Binding of Control serum Blood-bank to linear peptides of the protein M of SARS-CoV Urbani / Binding of Control serum LUMC to looped peptides of the protein M of SARS-CoV Urbani / Binding of Control Serum Blood-Bank to Looped peptides of the protein M of SARS-CoV Urbani: unit not given here
[3] = test system: antibodies in sera from SARS patients (sera 1a, 1b, 2, 6, 37, 62, London, SARS-yellow, SARS-green); type: binding, human; parameters: Binding of serum 6 to linear peptides of protein X1 of SARS-CoV Urbani / Binding of serum 37 to linear peptides of protein X1 of SARS-CoV Urbani / Binding of serum 6 to looped/cyclic peptide (PEPSCAN-ELISA) / Binding of serum 37 to looped/cyclic peptide (PEPSCAN-ELISA) / Binding of serum 37 to looped/cyclic peptides of protein X1 of SARS-CoV Urbani / Binding of serum 6 to linear peptides of protein X2 / Binding of serum 37 to linear peptides of protein X2 / Binding of serum 37 to looped/cyclic peptides of protein X2 of SARS-CoV Urbani / Binding of serum 6 to linear peptides of protein M of SARS-CoV Urbani / Binding of serum 37 to linear peptides of protein M of SARS-CoV Urbani / Binding of serum 6 to looped/cyclic peptides of protein M of SARS-CoV Urbani / Binding of serum 37 to looped/cyclic peptides of protein M of SARS-CoV Urbani / Binding of serum 6 to linear peptides of protein X3 of SARS-CoV Urbani / Binding of serum 37 to linear peptides of protein X3 of SARS-CoV Urbani / Binding of serum 37 to looped/cyclic peptides of protein X3 of SARS-CoV Urbani / Binding of serum 6 to linear peptides of protein X4 of SARS-CoV Urbani / Binding of serum 37 to linear peptides of protein X4 of SARS-CoV Urbani / Binding of serum 37 to looped/cyclic peptides of protein X4 of SARS-CoV Urbani / Binding of serum 6 to linear peptides of protein X5 of SARS-CoV Urbani / Binding of serum 37 to linear peptides of protein X5 of SARS-CoV Urbani / Binding of serum 37 to looped/cyclic peptides of protein X5 of SARS-CoV Urbani / Binding of serum 6 to linear peptides of protein N of SARS-CoV Urbani / Binding of serum 37 to linear peptides of protein N of SARS-CoV Urbani / Binding of serum 6 to linear peptide (PEPSCAN-ELISA) / Binding of serum 1a to looped/cyclic peptides of protein N of SARS-CoV Urbani / Binding of serum 1b to looped/cyclic peptides of protein N of SARS-CoV Urbani / Binding of serum 2 to looped/cyclic peptides of protein N of SARS-CoV Urbani / Binding of serum 6 to looped/cyclic peptides of protein N of SARS-CoV Urbani / Binding of serum 37 to looped/cyclic peptides of protein N of SARS-CoV Urbani / Binding of serum 62 to looped/cyclic peptides of protein N of SARS-CoV Urbani / Binding of serum London to looped/cyclic peptides of protein N of SARS-CoV Urbani / Binding of serum SARS-green to looped/cyclic peptides of protein N of SARS-CoV Urbani: unit not given here

IWNLDVIISSIVRQL
0.3: Binding of serum 1b to linear peptides of protein X3 of SARS-CoV Urbani [3] | Binding of serum SARS-green to looped/cyclic peptides of protein X3 of SARS-CoV Urbani [3]
0.7: Binding of Control Serum Blood-Bank to Looped peptides of the protein X3 of SARS-CoV Urbani [2] | Binding of Control serum LUMC to looped peptides of the protein X3 of SARS-CoV Urbani [2] | Binding of serum 1a to linear peptides of protein X3 of SARS-CoV Urbani [3]
0.4: Rabbit serum looped peptides [1] | Binding of serum 1b to looped/cyclic peptides of protein X3 of SARS-CoV Urbani [3] | Binding of serum 62 to looped/cyclic peptides of protein X3 of SARS-CoV Urbani [3] | Binding of serum SARS-green to linear peptides of protein X3 of SARS-CoV Urbani [3]
0.2: Rabbit serum linear peptides [1] | Binding of serum London to looped/cyclic peptides of protein X3 of SARS-CoV Urbani [3] | Binding of serum SARS-yellow to linear peptides of protein X3 of SARS-CoV Urbani [3]
0.5: Binding of Control serum LUMC to linear peptides of the protein X3 of SARS-CoV Urbani [2] | Binding of serum 1a to looped/cyclic peptides of protein X3 of SARS-CoV Urbani [3] | Binding of serum 2 to linear peptides of protein X3 of SARS-CoV Urbani [3] | Binding of serum 2 to looped/cyclic peptides of protein X3 of SARS-CoV Urbani [3] | Binding of serum 6 to linear peptides of protein X3 of SARS-CoV Urbani [3] | Binding of serum 37 to looped/cyclic peptides of protein X3 of SARS-CoV Urbani [3]
0.6: Binding of Control serum Blood-bank to linear peptides of the protein X3 of SARS-CoV Urbani [2] | Binding of serum 6 to looped/cyclic peptides of protein X3 of SARS-CoV Urbani [3] | Binding of serum 37 to linear peptides of protein X3 of SARS-CoV Urbani [3] | Binding of serum 62 to linear peptides of protein X3 of SARS-CoV Urbani [3] | Binding of serum London to linear peptides of protein X3 of SARS-CoV Urbani [3] | Binding of serum SARS-yellow to looped/cyclic peptides of protein X3 of SARS-CoV Urbani [3]

LAVFQSATKIIALNK
0.5: Binding of Control Serum Blood-Bank to Looped peptides [2] | Binding of serum 1a to looped/cyclic peptide (PEPSCAN-ELISA) [3] | Binding of serum 1b to linear peptides of protein X1 of SARS-CoV Urbani [3] | Binding of serum 2 to linear peptides of protein X1 of SARS-CoV Urbani [3] | Binding of serum 2 to looped/cyclic peptide (PEPSCAN-ELISA) [3] | Binding of serum 37 to looped/cyclic peptide (PEPSCAN-ELISA) [3] | Binding of serum 62 to linear peptides of protein X1 of SARS-CoV Urbani [3] | Binding of serum SARS-yellow to looped/cyclic peptide (PEPSCAN-ELISA) [3]
0.6: Binding of Control serum LUMC to linear peptides [2] | Binding of Control serum LUMC to looped peptides [2] | Binding of serum 6 to linear peptides of protein X1 of SARS-CoV Urbani [3] | Binding of serum 6 to looped/cyclic peptide (PEPSCAN-ELISA) [3] | Binding of serum 37 to linear peptides of protein X1 of SARS-CoV Urbani [3] | Binding of serum 62 to looped/cyclic peptide (PEPSCAN-ELISA) [3]
0.1: Binding of a rabbit serum to linear peptides [1]
0.7: Binding of a rabbit serum to looped peptides [1] | Binding of Control serum Blood-bank to linear peptides [2] | Binding of serum 1a to linear peptides of protein X1 of SARS-CoV Urbani [3] | Binding of serum London to looped/cyclic peptide (PEPSCAN-ELISA) [3]
0.2: Binding of serum London to linear peptides of protein X1 of SARS-CoV Urbani [3]
0.4: Binding of serum 1b to looped/cyclic peptide (PEPSCAN-ELISA) [3] | Binding of serum SARS-yellow to linear peptides of protein X1 of SARS-CoV Urbani [3]
0.3: Binding of serum SARS-green to linear peptides of protein X1 of SARS-CoV Urbani [3] | Binding of serum SARS-green to looped/cyclic peptide (PEPSCAN-ELISA) [3]

SFNPETNILLNVPLR
0.3: Binding of serum 6 to linear peptides of protein M of SARS-CoV Urbani [3] | Binding of serum London to linear peptides of protein M of SARS-CoV Urbani [3] | Binding of serum London to looped/cyclic peptides of protein M of SARS-CoV Urbani [3] | Binding of serum SARS-green to linear peptides of protein M of SARS-CoV Urbani [3] | Binding of serum SARS-green to looped/cyclic peptides of protein M of SARS-CoV Urbani [3]
0.1: Binding of serum SARS-yellow to linear peptides of protein M of SARS-CoV Urbani [3]
0.8: Binding of serum 1a to looped/cyclic peptides of protein M of SARS-CoV Urbani [3] | Binding of serum 6 to looped/cyclic peptides of protein M of SARS-CoV Urbani [3] | Binding of serum 62 to looped/cyclic peptides of protein M of SARS-CoV Urbani [3]
0.4: Rabbit serum looped peptides [1] | Binding of Control serum LUMC to linear peptides of the protein M of SARS-CoV Urbani [2] | Binding of serum 1b to linear peptides of protein M of SARS-CoV Urbani [3]
1.0: Binding of Control Serum Blood-Bank to Looped peptides of the protein M of SARS-CoV Urbani [2] | Binding of Control serum LUMC to looped peptides of the protein M of SARS-CoV Urbani [2] | Binding of serum SARS-yellow to looped/cyclic peptides of protein M of SARS-CoV Urbani [3]
0.7: Binding of Control serum Blood-bank to linear peptides of the protein M of SARS-CoV Urbani [2] | Binding of serum 1a to linear peptides of protein M of SARS-CoV Urbani [3] | Binding of serum 1b to looped/cyclic peptides of protein M of SARS-CoV Urbani [3] | Binding of serum 37 to linear peptides of protein M of SARS-CoV Urbani [3] | Binding of serum 37 to looped/cyclic peptides of protein M of SARS-CoV Urbani [3] | Binding of serum 62 to linear peptides of protein M of SARS-CoV Urbani [3]
0.9: Binding of serum 2 to looped/cyclic peptides of protein M of SARS-CoV Urbani [3]
0.5: Rabbit serum linear peptides [1] | Binding of serum 2 to linear peptides of protein M of SARS-CoV Urbani [3]

TGIENATFFIFNKLV
0.3: Binding of serum London to linear peptides of protein X1 of SARS-CoV Urbani [3] | Binding of serum London to looped/cyclic peptides of protein X1 of SARS-CoV Urbani [3]
0.4: Binding of serum SARS-green to linear peptides of protein X1 of SARS-CoV Urbani [3] | Binding of serum SARS-yellow to looped/cyclic peptides of protein X1 of SARS-CoV Urbani [3]
0.5: Binding of serum 1b to linear peptides of protein X1 of SARS-CoV Urbani [3] | Binding of serum 1b to looped/cyclic peptides of protein X1 of SARS-CoV Urbani [3] | Binding of serum 6 to linear peptides of protein X1 of SARS-CoV Urbani [3] | Binding of serum 6 to looped/cyclic peptides of protein X1 of SARS-CoV Urbani [3]
0.8: Binding of Control Serum Blood-Bank to Looped peptides [2] | Binding of Control serum Blood-bank to linear peptides [2]
0.2: Binding of serum SARS-green to looped/cyclic peptides of protein X1 of SARS-CoV Urbani [3]
0.7: Binding of Control serum LUMC to linear peptides [2] | Binding of Control serum LUMC to looped peptides [2] | Binding of serum 1a to linear peptides of protein X1 of SARS-CoV Urbani [3] | Binding of serum 37 to linear peptides of protein X1 of SARS-CoV Urbani [3] | Binding of serum 37 to looped/cyclic peptides of protein X1 of SARS-CoV Urbani [3] | Binding of serum 62 to linear peptides of protein X1 of SARS-CoV Urbani [3] | Binding of serum 62 to looped/cyclic peptides of protein X1 of SARS-CoV Urbani [3]
0.1: Binding of a rabbit serum to linear peptides [1]
0.6: Binding of a rabbit serum to looped peptides [1] | Binding of serum 1a to looped/cyclic peptides of protein X1 of SARS-CoV Urbani [3] | Binding of serum 2 to linear peptides of protein X1 of SARS-CoV Urbani [3] | Binding of serum 2 to looped/cyclic peptides of protein X1 of SARS-CoV Urbani [3] | Binding of serum SARS-yellow to linear peptides of protein X1 of SARS-CoV Urbani [3]

STQITTDTGIENATF
0.5: Binding of Control Serum Blood-Bank to Looped peptides [2] | Binding of Control serum Blood-bank to linear peptides [2] | Binding of serum 1a to linear peptides of protein X1 of SARS-CoV Urbani [3] | Binding of serum 6 to linear peptides of protein X1 of SARS-CoV Urbani [3]
0.4: Binding of serum 1b to linear peptides of protein X1 of SARS-CoV Urbani [3] | Binding of serum 1b to looped/cyclic peptides of protein X1 of SARS-CoV Urbani [3] | Binding of serum 2 to linear peptides of protein X1 of SARS-CoV Urbani [3] | Binding of serum 62 to linear peptides of protein X1 of SARS-CoV Urbani [3] | Binding of serum SARS-green to looped/cyclic peptides of protein X1 of SARS-CoV Urbani [3] | Binding of serum SARS-yellow to looped/cyclic peptides of protein X1 of SARS-CoV Urbani [3]
0.6: Binding of Control serum LUMC to linear peptides [2] | Binding of Control serum LUMC to looped peptides [2] | Binding of serum 1a to looped/cyclic peptides of protein X1 of SARS-CoV Urbani [3] | Binding of serum 37 to linear peptides of protein X1 of SARS-CoV Urbani [3] | Binding of serum 37 to looped/cyclic peptides of protein X1 of SARS-CoV Urbani [3] | Binding of serum 62 to looped/cyclic peptides of protein X1 of SARS-CoV Urbani [3]
0.7: Binding of a rabbit serum to looped peptides [1]
0.3: Binding of serum 2 to looped/cyclic peptides of protein X1 of SARS-CoV Urbani [3] | Binding of serum 6 to looped/cyclic peptides of protein X1 of SARS-CoV Urbani [3] | Binding of serum SARS-green to linear peptides of protein X1 of SARS-CoV Urbani [3]
0.1: Binding of a rabbit serum to linear peptides [1]
0.2: Binding of serum London to linear peptides of protein X1 of SARS-CoV Urbani [3] | Binding of serum London to looped/cyclic peptides of protein X1 of SARS-CoV Urbani [3] | Binding of serum SARS-yellow to linear peptides of protein X1 of SARS-CoV Urbani [3]
